Measured values from US20220267288A1, “CARDIAC THERAPEUTIC” (priority 2019, published 2022).

Columns and labels:
[1] = test system: H9c2 cells; assay: Mitochondrial membrane potential (Δψm) dissipation, TMRM dye; type: cell-based; settings: Rattus norvegicus; H9c2 cells, TMRM dye
Experimental: H9c2 cell line was purchased from American Tissue Type Collection (ATCC) (Manassas, Va.). The cells were cultured in low-glucose DMEM growth media (Cat No: 31600, Thermo Fisher Scientific, Waltham, Mass.) supplemented with 1.5 g/L sodium bicarbonate, 25 mM HEPES, 10% fetal bovine serum (FBS) (GE Healthcare, Singapore), 100 units/mL penicillin, 100 μg/mL streptomycin and 250 ng/mL amphotericin B in 75-cm^2 tissue-culture flasks at 37° C. in a humidified atmosphere of 5% CO2. Cells were fed every 2-3 days and sub-cultured once 70-80% confluency was achieved to prevent the loss of differentiation potential. For differentiation, H9c2 cells were seeded at a density of 100,000 cells/well in 12-well plates. The cells were maintained for 1 day in low-glucose high-serum growth media to allow for cell attachment. Subsequently, cells were differentiated using 1 μM ATRA.
Dissipation of Δψm by each test compound was measured using mitochondrial permeable dye, tetramethylrhodamine methyl ester perchlorate (TMRM) (Thermo Fisher Scientific, Waltham, Mass.). […] The media was aspirated, the cells were washed with PBS and fluorescence was measured at 557 nm excitation and 570 nm emission wavelengths. […] The media was aspirated and then the cells were treated with dronedarone and the dissipation of Δψm by AADs was measured as described.

[2] = biological target: T1, CYP3A5 (Homo sapiens, UniProt P20815); settings: literature value, similar experimental set-up; cited from earlier work
T1 construct: purchased BD Gentest (Woburn, Mass.)
T1 sequence (P20815 whole entry): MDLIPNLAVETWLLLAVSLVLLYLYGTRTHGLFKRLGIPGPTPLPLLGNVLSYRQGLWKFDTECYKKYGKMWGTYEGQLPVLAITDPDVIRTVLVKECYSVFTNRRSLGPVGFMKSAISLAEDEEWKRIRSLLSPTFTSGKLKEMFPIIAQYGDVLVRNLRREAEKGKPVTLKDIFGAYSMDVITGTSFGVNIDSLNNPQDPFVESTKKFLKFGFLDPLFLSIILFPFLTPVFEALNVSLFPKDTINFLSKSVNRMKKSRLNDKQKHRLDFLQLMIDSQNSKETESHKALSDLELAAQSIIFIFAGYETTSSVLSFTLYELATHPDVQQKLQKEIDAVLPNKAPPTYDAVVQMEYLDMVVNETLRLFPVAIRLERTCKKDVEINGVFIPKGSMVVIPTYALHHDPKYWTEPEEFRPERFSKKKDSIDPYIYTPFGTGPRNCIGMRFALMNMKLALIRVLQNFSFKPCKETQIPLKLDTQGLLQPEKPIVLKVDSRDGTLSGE

Q: Which IC50 [1] does the source give for `CCCCc1oc2ccc(NS(C)(=O)=O)cc2c1C(=O)c1ccc(OCCCN(CCCC)CCCC)cc1.Cl` [Dronedarone] here?
A: The IC50 was 0.5 µM.

Q: What about the “CLint CYP3A5 reported by Hong et al” value [2] of the same compound?
A: Its value is 2.604 µL/min/pmol.
